Source: patent US6262095A, “Use of tricyclic derivatives of 1,4-dihydro-1,4-dioxo-1H-naphthalene, novel compounds obtained and their application in theraphy” (Laboratoire Innothera, priority 1995, dated 2001)
Read-outs that look alike come from different tables or passages of the source.

What was measured:
[1] = test system: hyperpermeability induced by zymosan in rats; experiment: Inflammatory hyperpermeability induced by zymosan in rats; format: in vivo, rat (Wistar); conditions: rat, oral
Description: The vascular permeability is studied in vivo by measuring the extravasation of albumin, the quantity of which is determined using an albumin-binding dye (Evans blue).
The hyperpermeability is induced by the intradermal injection of a solution of histamine, bradykinin, or zymosan.
The abdominal walls of the rats (Wistar, 200-230 g) are shorn 1 h before the start of the experiment. The product to be tested is injected by the intraperitoneal route or orally 1-4 h before the sacrifice. The rats are anesthetized with a halothane mixture. They then receive an intradermal injection in their abdomen of 0.10 or 0.15 mL (or for histamine 6.7 or […]) of inflammatory agent and an intravenous injection of 1 mL of 0.5% Evans blue solution in the vein of the penis. These injections are carried out 30 min before the sacrificing.
30 min after these two injections, the rats are sacrificed by cervical dislocation.
At the site of the injection of the inflammatory agent, the skin is cut and placed into glass tubes with a ground[-glass] neck containing 3 mL of fuming hydrochloric acid. […] After allowing the preparation to stand for 30 min, 7 mL of dichloromethane are added. The tubes are periodically agitated for 1 h. The aqueous phase is eliminated by aspiration, and the organic "dichloromethane" phase is filtered. The optical densities are quantified by absorption spectrophotometry at a wavelength of 620 nm, against a blank [control] containing only dichloromethane. The averages of the optical densities of the different lots of treated or control animals are calculated, then a percentage of variation of the values corresponding to the treated [experimental] animals compared to those of the control animals is calculated.

mice = experiment: Single oral administration toxicity in mice; format: in vivo, mouse
Description: Moreover, the compounds of the invention and their possible salts have a very low toxicity.

[2] = test system: saphenous vein in rabbits; experiment: Contractile effect on the rabbit saphenous vein precontracted by a depolarizing physiological solution (K+ 40 mM); format: cell-based; conditions: precontracted with 40 mM potassium; for EC50: read-out: ED50 (the source's name)
Description: The contractile effects are measured in vitro under static conditions on vascular capacitance or resistance rings of saphenous, femoral, jugular, mesenteric, and caval veins . . . and on femoral, carotid, basilar, or mesenteric arteries, as well as the thoracic or abdominal aorta . . . in rats (Wistar, 200-250 g), rabbits (New Zealand, 2-2.5 kg), guinea pigs (Dunkin Hartley 250-300 g).
The rings are placed in a chamber for isolated organs (25 mL for capacitance vessels and 2.5 mL for resistance vessels according to Mulvany), and maintained under isometric conditions using two rigid threads inserted inside the vessel, avoiding causing damage to the endothelium. The vessels are bathed in a modified Krebs solution (in mM: NaCl=118; KCl=4.6; CaCl2 =2.5; MgSO4 =1.2; KH2 PO4 =1.17; NaHCO3 =25; glucose=11), continuously aerated using a gaseous mixture of 95% O2 and 5% Co2, at a pH=7.4, and regulated by thermostat at 37° C. The rings are adjusted to their optimal point as far as the tension-length relationship is concerned. The tensions developed generate an electrical signal through the intermediary of a force sensor (Wheatstone bridge). […] The pharmacological studies are carried out after a few standardized preliminary contractile stimulations using a depolarizing solution (hyperpotassic type obtained by replacing NaCl with KCl in equimolar quantities), along with rinsings and periods of equilibration in a pure physiological solution. The presence of endothelium is verified by the relaxation induced by increasing the concentration of acetylcholine after the stabilization of a vascular precontraction.
The forces of contraction developed by the vascular rings in response to the different compounds are studied on quiescent or electrically stimulated vessels (5-8 Hz), by a "physiological" depolarizing hyperpotassic solution (KCl: 20, 40 mM), by noradrenaline (increasing concentrations), [and by] serotonin (increasing concentrations).
The contractions are expressed in mg force or as a percentage of the maximum contraction at the time of the depolarization with a "physiological" hyperpotassic solution.
The contractile effect of different compounds on the saphenous vein in rabbits, precontracted by a depolarizing "physiological" solution with a potassium concentration of 40 mM, is given as an illustration; the maximum effect produced by each compound is expressed as a percentage of the maximum contraction induced by depolarizing hyperpotassic solutions and as value of ED50): […]

[3] = test system: capillary resistance of rats; experiment: Capillary resistance of rats after oral administration (petechial index); format: in vivo, rat (Wistar); conditions: rat
Description: The increase in the capillary resistance is evaluated by the modification of the petechial index (negative pressure inducing the extravasation of the erythrocytes), measured by a method derived from the angiosterrometer of Parrot.
The studies are carried out on male Wistar rats with an average weight of 200 g (approximate age six weeks). The bottom area of the back is shorn, then the hair is pulled by means of a paste based on a derivative of thioglycolic acid and calcium hydroxide. After approximately 30 min, the skin is abundantly rinsed and dried.
On the day of the study, the rats are maintained without constraint. A low pressure of 80 mm of mercury is applied. If the petechiae (extravasation of erythrocytes) have not appeared within 15 sec, the low pressure is increased as a countermeasure, keeping the suction cap at the same place.
The minimum low pressure where petechias appear, in mm of mercury, expresses the basal capillary resistance (before any treatment). Two measurements are made for each test at different sites on of the back.
The rats are treated by the oral route. […] All the measurements are done in the blind mode.
A percentage of variation in the capillary resistances of the animals treated compared to their basal capillary resistance is calculated for each compound studied, at each treatment time and compared with the control group (excipient only) or the reference group.

[4] = single oral administration of 500 mg/kg
[5] = Oryctolagus cuniculus, % of maximum contraction induced by hyperpotassic solutions
[6] = 0.1 mg/kg, ** granulometry: 0.6-0.7 mm

COc1ccc2c(c1)C(=O)c1sc(-c3ccccc3)nc1C2=O [Example 25, 4,9-Dihydro-4,9-dioxo-7-methoxy-2-phenylnaphtho[2,3-d]thiazole]
Zymosan-induced hyperpermeability, effect after 2 h ([1]; 0.1 mg/kg): -14 % of the control | Zymosan-induced hyperpermeability, effect after 4 h ([1]; 0.1 mg/kg): -17 % of the control

Cc1ccccc1-c1nc2c(o1)C(=O)c1ccccc1C2=O [Example 6, 4,9-Dihydro-4,9-dioxo-2-(2-methylphenyl)-naphtho[2,3-d]oxazole]
toxic effect and mortality (mice; [4]): no observable toxic effect and no mortality

O=C1c2ccccc2C(=O)c2sc(-c3ccncc3)nc21.O=S(=O)(O)O [Example 17, 4,9-Dihydro-4,9-dioxo-2-(4-pyridyl)-naphtho[2,3-d]thiazole sulfate]
Zymosan-induced hyperpermeability, effect after 2 h ([1]; 0.1 mg/kg): -15 % of the control | Zymosan-induced hyperpermeability, effect after 4 h ([1]; 0.1 mg/kg): -23 % of the control

COc1ccc2c(c1)C(=O)c1sc(-c3ccco3)nc1C2=O [Example 59, 4,9-Dihydro-4,9-dioxo-2-(2-furyl)-7-methoxynaphtho-[2,3-d]thiazole]
Emax [2, 5]: 18 ± 4% | EC50 ([2]; Oryctolagus cuniculus): 53 nM | Zymosan-induced hyperpermeability, effect after 2 h ([1]; 0.1 mg/kg): -13 % of the control | Zymosan-induced hyperpermeability, effect after 4 h ([1]; 0.1 mg/kg): +21 % of the control

O=C1c2ccccc2C(=O)c2oc(-c3ccc(Cl)cc3)nc21 [Example 10, 2-(4-Chlorophenyl)-4,9-dihydro-4,9-dioxo-naphtho[2,3-d]oxazole]
Increase of capillary resistance, effects after 4 h ([3]; 0.1 mg/kg): 25 % of the control | Increase of capillary resistance, effect after 6 h ([3]; 0.1 mg/kg): 46 % of the control

O=C1c2ccccc2C(=O)c2oc(-c3ccc(F)cc3)nc21 [Example 5, 4,9-Dihydro-4,9-dioxo-2-(4-fluorophenyl)-naphtho[2,3-d]oxazole]
toxic effect and mortality (mice; [4]): no observable toxic effect and no mortality

O=C1c2ccccc2C(=O)c2sc(-n3cccc3)nc21 [Example 28, 4,9-Dihydro-4,9-dioxo-2-(1-pyrrolyl)-naphtho-[2,3]-thiazole]
Emax [2, 5]: 29 ± 2% | EC50 ([2]; Oryctolagus cuniculus): 37 nM | Increase of capillary resistance, effects after 4 h [3, 6]: 10 % of the control | Increase of capillary resistance, effect after 6 h [3, 6]: 13 % of the control | Zymosan-induced hyperpermeability, effect after 2 h ([1]; 5 mg/kg): -29 % of the control | Zymosan-induced hyperpermeability, effect after 4 h ([1]; 5 mg/kg): 0 % of the control

4,9-Dihydro-4,9-dioxo-2-(2-furyl)-5-hydroxynaphtho-[2,3-d]thiazole or 4,9-Dihydro-4,9-dioxo-2-(2-furyl)-8-hydroxynaphtho-[2,3-d]thiazole [Example 57]
Emax (% maximum contraction) ([2]; % of maximum contraction induced by hyperpotassic solutions): 22±3 % maximum contraction | EC50 [2]: 41 nM

O=C1c2ccccc2C(=O)c2sc(-c3ccc(F)cc3F)nc21 [Example 15, 2-(2,4-Difluorophenyl)-4,9-dihydro-4,9-dioxo-naphtho[2,3-d]thiazole]
Increase of capillary resistance, effects after 4 h ([3]; 0.1 mg/kg): 20 % of the control | Increase of capillary resistance, effect after 6 h ([3]; 0.1 mg/kg): 27 % of the control

O=C1c2ccccc2C(=O)c2sc(-c3ccc(Cl)o3)nc21 [Example 19, 2-(5-Chloro-furan-2-yl)-4,9-dihydro-4,9-dioxo-naphtho[2,3-d]thiazole]
Emax [2, 5]: 20 ± 8% | EC50 ([2]; Oryctolagus cuniculus): 75 nM

O=C1c2ccccc2C(=O)c2sc(-c3cccc(F)c3)nc21 [Example 13, 4,9-Dihydro-4,9-dioxo-2-(3-fluorophenyl)-naphtho[2,3-d]thiazole]
Emax [2, 5]: 21 ± 3% | EC50 ([2]; Oryctolagus cuniculus): 57 nM | toxic effect and mortality (mice; single oral administration, 1 g/kg): no observable toxic effect and no mortality

O=C1c2ccccc2C(=O)c2sc(-c3ccoc3)nc21 [Example 18, 4,9-Dihydro-4,9-dioxo-2-(3-furyl)naphtho[2,3-d]thiazole]
Emax [2, 5]: 39 ± 6% | EC50 ([2]; Oryctolagus cuniculus): 88 nM | Increase of capillary resistance, effects after 4 h ([3]; 5 mg/kg): 25 % of the control | Increase of capillary resistance, effect after 6 h ([3]; 5 mg/kg): 28 % of the control

COc1ccc2c(c1)C(=O)c1nc(-c3ccccc3)sc1C2=O [Example 26, 4,9-Dihydro-4,9-dioxo-6-methoxy-2-phenylnaphtho[2,3-d]thiazole]
Zymosan-induced hyperpermeability, effect after 2 h ([1]; 0.1 mg/kg): -14 % of the control | Zymosan-induced hyperpermeability, effect after 4 h ([1]; 0.1 mg/kg): -24 % of the control

Nc1nc2c(s1)C(=O)c1ccccc1C2=O [Example i, 2-Amino-4,9-dihydro-4,9-dioxonaphtho[2,3-d]thiazole]
Emax [2, 5]: 18 ± 1% | EC50 ([2]; Oryctolagus cuniculus): 90 nM

Cc1nc2c(n1C)C(=O)c1ccccc1C2=O.O=S(=O)(O)O [Example 1, 4,9-Dihydro-4,9-dioxo-1,2-dimethyl-1H-naphtho[2,3-d]imidazole sulfate]
Increase of capillary resistance, effects after 4 h ([3]; 0.1 mg/kg): 37 % of the control | Increase of capillary resistance, effect after 6 h ([3]; 0.1 mg/kg): 35 % of the control | Zymosan-induced hyperpermeability, effect after 2 h ([1]; 5 mg/kg): -28 % of the control | Zymosan-induced hyperpermeability, effect after 4 h ([1]; 5 mg/kg): -28 % of the control

O=C1c2ccccc2C(=O)c2sc(-c3ccc(F)cc3)nc21 [Example 14, 4,9-Dihydro-4,9-dioxo-2-(4-fluorophenyl)naphtho[2,3-d]thiazole]
Zymosan-induced hyperpermeability, effect after 2 h ([1]; 0.1 mg/kg): -31 % of the control | Zymosan-induced hyperpermeability, effect after 4 h ([1]; 0.1 mg/kg): -15 % of the control

Cc1cccc(-c2nc3c(o2)C(=O)c2ccccc2C3=O)c1 [Example 7, 4,9-Dihydro-4,9-dioxo-2-(3-methylphenyl)-naphtho[2,3-d]oxazole]
Emax [2, 5]: 17 ± 2% | EC50 ([2]; Oryctolagus cuniculus): 36 nM

Cc1ccc(-c2nc3c(s2)C(=O)c2ccccc2C3=O)o1 [Example 38, 4,9-Dihydro-4,9-dioxo-2-(5-methyl-2-furyl)naphtho-[2,3-d]thiazole]
Emax [2, 5]: 12 ± 1% | EC50 ([2]; Oryctolagus cuniculus): 160 nM | Zymosan-induced hyperpermeability, effect after 2 h ([1]; 0.1 mg/kg): -12 % of the control | Zymosan-induced hyperpermeability, effect after 4 h ([1]; 0.1 mg/kg): -3 % of the control

O=C1c2ccccc2C(=O)c2[nH]c(-c3ccccc3F)nc21 [Example 2, 4,9-Dihydro-4,9-dioxo-2-(2-fluorophenyl)-1H-naphtho[2,3-d]imidazole]
Increase of capillary resistance, effects after 4 h ([3]; 0.1 mg/kg): 25 % of the control | Increase of capillary resistance, effect after 6 h ([3]; 0.1 mg/kg): 28 % of the control

O=C1c2ccccc2C(=O)c2sc(-c3ccccn3)nc21 [Example k, 4,9-Dihydro-4,9-dioxo-2-(2-pyridyl)-naphtho[2,3-d]thiazole]
Emax [2, 5]: 26 ± 9% | EC50 ([2]; Oryctolagus cuniculus): 70 nM
